Assay results from patent US9321993B2, “Tissue culture method for producing cartilage using trimethylamine N-oxide and chondroitinase” (The Trustees of Columbia University in the City of New York, priority 2010, dated 2016).

Key:
Articular chondrocytes [1] = experiment: Biochemical analysis (GAG, OHP) and histology of constructs, Example 2; type: cell-based, bovine
Method: (§1) Articular chondrocytes were harvested from juvenile bovine wrist joints (2-4 weeks old), and digested for 8 hrs at 37° C. with Collagenase V (Sigma) to isolate chondrocytes. The cells were expanded for one passage in DMEM media containing 10% FBS, 1% PSAM, 5 ng/ml bFGF, 10 ng/ml PDGF, and 1 ng/ml of TGF-b1 (plating density=180 cells/cm^2) (see Ng et al. 2010 Tissue Eng Part A 16(3), 1041-1051). The passaged cells were seeded in 2% w/v agarose hydrogel scaffold (Type VII, Sigma Inc.) at a concentration of 30M cells/ml. Samples were cored (diameter=4 mm, thickness=2.34 mm) and cultured in chondrogenically-defined media (CM: DMEM with 0.1 uM dexamethasone, 40 mg/mL L-proline, 50 mg/mL ascorbate 2-phosphate, […] sodium pyruvate, 1×ITS+premix, 100 U/ml penicillin, and […] streptomycin and amphotericin B) supplemented with TGF-β3 for the first 14 days. Constructs grown without TMAO served as control.
(§2) Six culture medias were evaluated, with serum free media containing ascorbic acid and 10 ng/ml of TGF-b3 for the first 14 days used as the control (see Lima et al. 2007 Osteoarthritis Cartilage 15(9), 1025-1033). TMAO was added to the media at concentrations of 55 mM and 180 mM, and urea was added to the media at concentrations of 90 mM and 360 mM. The final group included a combination (combo) of TMAO (180 mM) and urea (360 mM).
(§3) The equilibrium Young's (Eγ) and dynamic modulus was determined under 10% unconfined compression. Biochemical analysis was performed to determine the GAG, hydroxyproline (OHP) and DNA content. GAG and OHP values were normalized to the DNA content and wet weight. Tested samples were fixed for histology and stained with Picosirius Red and Safranin-O to determine the distribution of collagen and GAG, respectively. Mechanical, biochemical and histological analysis was performed every two weeks (n=4/5). A two-way ANOVA (factors: culture day and treatment) was performed to evaluate the treatment for mechanical and biochemical analysis with a Bonferroni post hoc analysis.

Articular chondrocytes [2] = experiment: Equilibrium Young's and dynamic modulus under 10% unconfined compression, Example 2; type: cell-based, bovine; settings: for mechanical properties (Young's modulus) versus control group: day 28
Method: as §1, §2, §3

Articular chondrocytes [3] = experiment: Young's and dynamic modulus after transient application of TMAO, Example 3; type: cell-based, bovine; settings: 50 mM TMAO for the first 14 days (transient); day 42
Method: as §1
(§4) The equilibrium Young's (Eγ) and dynamic modulus was determined under 10% unconfined compression. Biochemical analysis was performed to determine the GAG, hydroxyproline (OHP) and DNA content. GAG and OHP values were normalized to the DNA content and wet weight. Tested samples were fixed for histology and stained with Picosirius Red and Safranin-O to determine the distribution of collagen and GAG, respectively. […]

Articular chondrocytes [4] = experiment: Equilibrium modulus of constructs digested with chondroitinase ABC, then cultured with CM or TMAO, Example 4; type: cell-based, bovine
Method: as §1, §3
(§5) Methods are according to Example 2 unless otherwise indicated.
Mature constructs were enzymatically digested for 48 hours at day 14 with 0.15 U/mL of chondroitinase ABC (chABC), which degrades proteoglycans, then cultured with CM or CM supplemented with 5 mM of TMAO. […] Following the digestion, constructs were cultured in either CM or CM supplemented with 5 mM TMAO. A Student's t-test was performed to compare properties of the constructs cultured in CM or CM supplemented with TMAO. Significance was set at ? =0.05.

Articular chondrocytes [5] = experiment: Biochemical content of constructs digested with chondroitinase ABC, then cultured with CM or TMAO, Example 4; type: cell-based, bovine
Method: as §1, §4

Articular chondrocytes [6] = experiment: GAG and OHP content after transient application of TMAO, Example 3; type: cell-based, bovine
Method: as §1, §3
Culture media was supplemented with 0 mM, 5 mM, 50 mM, 100 mM or 200 mM of TMAO for the first 14 days of culture (transient application).
Methods are according to Example 2 unless otherwise indicated. Statistical analysis included a two-way ANOVA (factors: time & concentration) with a Bonferonni post-hoc test.

[7] = tested on: Immature bovine chondrocytes; experiment: Stiffness (Young's modulus) of engineered constructs cultured with supplemented media, Example 1; type: cell-based; settings: TMAO 180 or 55 mM from day 0; day 28 of culture
Method: Immature bovine chondrocytes were enzymatically isolated and encapsulated in 2% w/v type VII agarose (Sigma). Engineered cylindrical constructs were cultured in serum-free chondrogenic media (ITS+, ascorbic acid, dexamethasone, pen/strep) and transforming growth factor beta-3 (TGFβ3) for the first 14 days.
The culture media of some constructs were supplemented from day 0 with TMAO (180 or 55 mM), urea (360 or 90 mM) or TMAO+urea (combo: 360 mM urea and 180 mM TMAO which is the physiological ratio found in shark tissue).

[8] = tested on: nucleus pulposus (spine tissue) cells; experiment: GAG and OHP (collagen) content of nucleus pulposus micropellets, Example 5; type: cell-based
Method: as §3, §5
Micropellets (scaffold-free constructs comprised of aggregated cells only) consisting of nucleus pulposus (spine tissue) cells were cultured for […]. The media was supplement with either 5 mM or 50 mM TMAO. Micropellets cultured in CM were used as the control. Micropellets were cultured for 6 weeks and analyzed for biochemistry (i.e. GAG, DNA and OHP contents).

[9] = high concentration of urea (360 mM)
[10] = lower concentrations of urea (90 mM)
[11] = 5 mM TMAO after chABC digestion, by day 28, persisted to day 42

NC(N)=O [urea, reference compound]
biochemical properties versus day 0 (Articular chondrocytes [1]; [9]): did not increase from day 0
effect on biochemical properties (Articular chondrocytes [1]; [10]): did not have adverse effects
mechanical properties versus day 0 (Articular chondrocytes [2]; [9]): did not increase from day 0
effect on mechanical properties (Articular chondrocytes [2]; [10]): did not have adverse effects

C[N+](C)(C)[O-] [TMAO, Trimethylamine N-oxide]
Young's modulus versus control group (Articular chondrocytes [3]): significantly greater than the control group
dynamic modulus versus control group (Articular chondrocytes [3]): significantly greater than the control group
mechanical properties relative to CM alone (Articular chondrocytes [4]; [11]): significantly greater
recovery of the mechanical properties (Articular chondrocytes [4]; TMAO supplement following the chABC digestion, compared to the control): quicker recovery
EY (equilibrium Young's modulus) (Articular chondrocytes [4]; day 42, CM with 5 mM TMAO after chABC digestion, CM group 115.6±38.1 kPa): 235.6±75.8 kPa
biochemical properties relative to CM alone (Articular chondrocytes [5]; [11]): significantly greater
collagen content compared to the control (Articular chondrocytes [5]; TMAO supplement following the chABC digestion): increases the collagen content
normalized GAG content versus control (Articular chondrocytes [1]; 55 mM TMAO, day 28): significantly greater than control
normalized collagen content versus control (Articular chondrocytes [1]; 55 mM TMAO, day 28): significantly greater than control
histology: distribution of GAG and collagen throughout the thickness of the construct (Articular chondrocytes [1]; 55 mM TMAO, day 28, Picosirius Red and Safranin-O): even distribution
OHP content greater than the control values (Articular chondrocytes [6]; 100 mM TMAO, day 28): approximately 50%
GAG content (normalized to wet weight) greater than control values (Articular chondrocytes [6]; TMAO 5 mM, 50 mM and 100 mM, day 42): up to 17%
OHP content (normalized to the wet weight) versus control (Articular chondrocytes [6]; TMAO groups, day 28, reaching significance for 50 mM and 100 mM): greater than the control
Young's modulus (stiffness) versus control group [7]: two-fold
mechanical properties (Young's modulus) versus control group (Articular chondrocytes [2]; 55 mM TMAO): 2 ×
mechanical properties (Young's modulus) versus control group (Articular chondrocytes [2]; 180 mM TMAO): 2 ×
GAG production of the micropellets ([8]; 5 mM or 50 mM TMAO, normalized by DNA content at day 42 (FIG. 9A)): graded effect
increase in collagen production ([8]; CM supplemented with TMAO (5 mM or 50 mM), normalized by DNA content at day 42 (FIG. 9B)): 50%
